Measured values published in US10137101B2, “Alkylamido compounds and uses thereof” (Nogra Pharma Limited, priority 2009, dated 2018).

Assays:
[1] = test system: TNF-alpha; assay: Inhibition of TNF-alpha mRNA induction by H2O2 in keratinocytes (Real time RT-PCR); assay type: cell-based, human; settings: H2O2 300 μM, 6 h, FIG. 6
Experimental: Analysis of the inhibition of compound A of the mRNA induction of the proinflammatory cytokine TNF-alpha by H2O2 was carried out by Real time RT-PCR. The keratinocytes were plated in dishes of 6 cm/Ø. At 80% confluence, the cells were treated with H2O2 (300 μM) in presence of Compound A at the three concentrations (0.01-0.1-0.5 mM) for 6 h. At the end of the treatment, the cells were lysed in a lysis buffer and subjected to isolation and subsequent retrotranscription of the RNA. […] (FIG. 6)

[2] = test system: human primary keratinocytes; assay: MTT test on human primary keratinocytes; assay type: cell-based; settings: 0.1-1-2 mM, 24 and 48 h; FIG. 5
Experimental: To assess the possible toxic or cytostatic effect of the substances under study, a spectrophotometric test (MTT) was carried out. The human primary keratinocytes, isolated from skin biopsies, were plated in wells of a 24-well plate in suitable medium with addition of antibiotics, calcium, and specific growth factors. At around 70% confluence, the cells were exposed to the presence of Compound A, at various concentrations (0.1-1-2 mM), for 24 and 48 h in suitable medium with addition of antibiotics, calcium, but no growth factors. This culture condition was done for all the subsequent experiments. At the end of the treatment, the MTT test was done.

[3] = test system: sebocytes; assay: Sebogenesis induced by linoleic acid and testosterone, Nile Red Assay; assay type: cell-based, human; settings: LA 10^-4M, TST 20 nM, compound 1 mM
Experimental: Analysis of the inhibition by (compound A) of sebogenesis induced by treatment with linoleic acid (LA) and with testosterone (TST) was evaluated by spectrofluorimetry, using Nile Red as selective marker of intracellular lipids (Nile Red Assay). The sebocytes were plated in wells of a 24-well plate. Next day, they were deprived of serum (2%) and after 24 h they were stimulated, for another 24 h, with LA (10^-4M), TST (20 nM) in presence or in absence of A (1 mM). At the end of the treatment, the sebocytes were stained with Nile Red. The quantitative analysis was done by spectrofluorimetry, which made it possible to distinguish between neutral lipids and polar lipids based on the different wavelength of excitation and emission. […] (FIG. 11).
Analysis of the inhibition by compound A of sebogenesis induced by treatment with linoleic acid (LA) and with testosterone (TST) was evaluated by spectrofluorimetry, using Nile Red as selective marker of intracellular lipids (Nile Red Assay). The sebocytes were plated in wells of a 24-well plate. […] The quantitative analysis was done by spectrofluorimetry, which made it possible to distinguish between neutral lipids and polar lipids based on the different wavelength of excitation and emission.

[4] = test system: sebocytes; assay: Sebogenesis induced by LA and TST, fatty acids and squalene by GC-MS; assay type: cell-based, human; settings: compound 1 mM
Experimental: In order to evaluate in greater detail the inhibition by Compound A of sebogenesis induced by LA and TST, assays were performed on the lipid extract of the sebocytes using gas chromatography coupled with mass spectrometry (GC-MS). The sebocytes were treated by the scheme described for the Nile Red assay. At the end of the treatment, the cells were removed and then the lipid extraction was done by using organic solvents. One part of the extract was used to analyze the fatty acid composition, while the other part was used for the determination of the quantity of squalene, a lipid characteristic of sebum. […] (FIG. 12B)

[5] = test system: IL-6; assay: Inhibition of IL-6 protein induction by LPS in keratinocytes (ELISA); assay type: cell-based, human; settings: LPS 10 μg/ml, 24 h; 0.01-0.1-0.5 mM; FIG. 9
Experimental: Analysis of the inhibition by Compound A of the protein induction of IL-6 by LPS (lipopolysaccharide) was done with the ELISA kit. The keratinocytes were plated in wells of a 24-well plate. At 80% confluence, the cells were treated with LPS (10 μg/ml) in presence of compound A at the three concentrations (0.01-0.1-0.5 mM) for 24 h. At the end of the treatment, the supernatant was decanted, centrifuged so as to remove any cell detritus, and kept at −80° C. until the time of the analysis. The quantity of IL-6 present in the supernatant was normalized by the protein concentration of the sample itself.

[6] = test system: sebocytes; assay: MTT test on human sebocytes; assay type: cell-based; settings: 0.1-0.5-1-2 mM, 24 and 48 h; FIG. 10
Experimental: To assess the possible toxic or cytostatic effect of the substances under study, a spectrophotometric test (MTT) was carried out. The sebocytes were plated in wells of a 24-well plate in suitable medium with addition of antibiotics, calcium and EGF. At roughly 70% confluence, the cells were exposed to the presence of compound A, in various concentrations (0.1-0.5-1-2 mM), for 24 and 48 h. At the end of the treatment, the MTT test was performed. […] (FIG. 10)

[7] = test system: IL-6; assay: Inhibition of IL-6 mRNA induction by IFN-γ in keratinocytes (Real time RT-PCR); assay type: cell-based, human; settings: IFN-γ 30 ng/ml, 6 h; 0.01-0.1-0.5 mM; FIG. 7
Experimental: Analysis of the inhibition by compound A of the mRNA induction of the proinflammatory cytokine IL-6 by IFN-γ was done through Real time RT-PCR. The keratinocytes were plated in dishes of 6 cm/Ø.
At 80% confluence, the cells were treated with IFN-γ (30 ng/ml) in presence of compound A (N-Acetylged) at the three concentrations (0.01-0.1-0.5 mM) for 6 h.

[8] = test system: Colitis in C57bI6 mice; assay: Anti-murine colitis model (TNBS); assay type: in vivo
Experimental: Colitis in C57bI6 mice is induced by administering TNBS (150 mg/kg) by oral gavage on day −3. Stool samples were taken 8 hours after administration. At day 0-5, N-acetylated E2 (30 mM) was administrated by oral gavage. On day 5, mice were analyzed to obtain a mortality macroscopic score (Wallace, Gastroenterology 96: 29-36, 1989).

## CO[C@H](Cc1ccc(NC(C)=O)cc1)C(=O)O [Compound A, N-acetyl-(R)-(−)-3-(4-aminophenyl)-2-methoxypropionic acid]
[1]; higher dose (0.5 mM), effect similar to troglitazone
  inhibition of expression of mRNA of TNF-α induced by H2O2, higher dose: complete inhibition
[1]; two higher doses (0.1 mM; 0.5 mM)
  inhibition of expression of mRNA of TNF-α induced by H2O2: able to inhibit
[2]
  cellular vitality (MTT): did not show any effect on cellular vitality
[3]; 24 h, FIG. 11, FIG. 13
  inhibition of sebogenesis (intracellular lipids, Nile Red): able to reduce the lipidogenic stimulus
[3]; FIG. 13
  influence of times of treatment on inhibition of sebogenesis (Nile Red): No differences were observed
[4]; FIG. 12A
  fatty acid assay of lipid extract (lipidogenic stimulus): reduced
[4]; FIG. 12B
  squalene analysis of lipid extract: confirmed
[5]
  inhibition of protein expression of IL-6 induced by LPS: inhibit, in dose-dependent manner
[6]
  cell vitality (MTT): no effects on cell vitality
[7]
  inhibition of mRNA expression of IL-6 induced by IFN-γ: inhibit the expression of the inflammatory cytokine induced by presence of IFN-γ which does not appear to be dose-dependent
[8]; TNBS 150 mg/kg oral gavage day -3, N-acetylated E2 30 mM oral gavage day 0-5, versus TNBS alone, FIG. 1
  % mortality: comparable
[8]; TNBS + N-acetyl E2 30 mM oral gavage versus TNBS alone, FIG. 3
  MPO (myleoperoxidase) activity: decreased
[8]; TNBS + N-acetyl E2 30 mM oral gavage versus TNBS alone, FIG. 4
  colonic inflammation (Ameho score): colonic inflammation had decreased
[8]; TNBS + N-acetyl E2 30 mM oral gavage versus TNBS alone, day 5, FIG. 2
  level of colonic lesions (Wallace macroscopic score): significantly less
